Results taken from US7427599B2, “Biologically active peptide comprising Tyrosyl-seryl-valine(YSV)” (CMS Peptides Patent Holding Company Limited, priority 2003, dated 2008).
Peptide text beside a SMILES is read from it.

Key:
[1] = tested on: human leukemia K562 cells; assay: Proliferation of cultured human leukemia K562 cells in vitro (MTT); assay type: cell-based; conditions: for % inhibition / OD value: 48 hours; for OD value: MTT OD570 nm, negative control 0.43 ± 0.01
Method: A human leukemia K562 cell at logarithmic growth phase was adjusted to density of 5×10^4/ml with RPMI-1640 culture medium containing 10% FBS. 100 μl/well of the cell were placed onto a 96 wells cell culture plate. The cells were incubated for 24 hours at 37° C., 5% CO2. The experiment included […] with different concentrations of YSV in culture medium and a negative control group with culture medium only. The final concentrations of YSV were 40 μg/ml, 20 μg/ml, 10 μg/ml, and 5 μg/ml. Each group contained five parallel wells. 100 μl/well testing solution was added to the treated cells. The cells were incubated for 48 hours at 37° C., 5% CO2.
The cells were then pelleted by centrifugation at 150 g for 10 minutes. The supernatant was removed and 100 μl/well MTT solution of 0.5 mg/ml in RPMI-1640 was added to the cell pellets and the cells were re-suspended by shaking for 2 minutes. Incubation was continued for 4 hours. The supernatant was removed after a centrifugation at 150 g for 10 minutes. After blotted dry by filter paper, 100 μl/well 40 mM HCl-2-propanol was added to the cell pellets and shaken for 3 minutes. OD570 nm of each well referenced at 630 nm was obtained by using ELISA reader.

[2] = tested on: Human liver cancer BEL7402 cells; assay: Proliferation of cultured human liver cancer BEL7402 cells in vitro (MTT); assay type: cell-based; conditions: for % inhibition / OD value: 48 hours; for OD value: MTT OD570nm, negative control 0.36 ± 0.01
Method: Human liver cancer BEL7402 cells at logarithmic growth phase were detached by incubating for 2 to 3 minutes with phosphate buffer saline pH7.4 (PBS) containing 0.05% trypsin and 0.02% EDTA. The cells were examined by inverted phase contrast microscopy. The supernatant was removed after cytoplasm pyknosis and dilatation of cell compartment were observed. A few milliliters of RPMI-1640 culture medium with 10% FBS was added to terminate the digestion. The cells were harvested by gently blowing with a pipette. The suspended cells were collected by centrifugation at 150 g for 10 minutes, and washed twice by cold D-Hank's solution with re-suspension and centrifugation. The washed cells were re-suspended in RPMI-1640 medium with 10% FBS and adjusted to density of 5×10^4/ml. The treated BEL7402 cells were placed onto a 96 wells cell culture plate, 100 μl/well. The cells were incubated for 24 hours at 37° C., 5% CO2 for re-activation and attachment.
The experiment included three testing groups with different concentrations of YSV and a negative control. The final concentrations of YSV in culture medium were 20 μg/ml, 10 μg/ml, and 5 μg/ml. The YSV solution was replaced by RPMI-1640 culture medium with 10% FBS in the negative control group. Each group contained five parallel wells. The cells were incubated for 48 hours at 37° C., 5% CO2.
The cells were then pelleted by centrifugation at 150 g for 10 minutes. After the supernatant was removed, 100 μl/well MTT of 0.5 mg/ml in RPMI-1640 was added to the cell pellets and the cells were re-suspended by shaking for 2 minutes. Incubation was continued for 4 hours. The supernatant was removed after centrifugation at 150 g for 10 minutes. After blotted dry by filter paper, 100 μl/well 40 mM HCl-2-propanol was added to the cell pellets and shaken for 3 minutes. OD570nm of each well referenced at 630 nm was obtained by using ELISA reader.

[3] = tested on: T lymphocytes (spleen lymphocyte suspension); assay: Effect of YSV on T lymphocyte transformation in vitro (ConA, MTT); assay type: cell-based, BALB/c Mice; conditions: for X ± SD (OD), T lymphocytes transformation: 68 hrs, MTT OD570 nm, positive control 0.14 ± 0.00
Method: Healthy mice were sacrificed by cervical dislocation. The spleens were isolated and dispersed aseptically. The spleen lymphocyte suspension washed and adjusted to a cell density of 5×10^6/ml with RPMI-1640 culture medium containing 10% fetal bovine serum. YSV was diluted with RPMI-1640 culture medium into various concentrations: 2 μg/ml, 0.4 μg/ml, 0.08 μg/ml, 0.016 μg/ml. Con A working solution was adjusted to 1 mg/ml with RPMI-1640 culture medium.
The reagents were placed onto a 96 wells cell culture plate according to the following: 100 μl/well lymphocyte suspension, 20 μl/well ConA, and 100 μl/well YSV solution of various concentrations, 6 parallel wells for each concentration; 100 μl/well lymphocyte suspension and 120 μl/well RPMI-1640 culture medium (containing 10% FBS) were added to 12 parallel wells as negative control; 100 μl/well lymphocyte suspension, 100 μl/well RPMI-1640 culture medium (10% FBS) and 20 μl/well ConA were added to 12 parallel wells as positive control.
The cells were incubated for 68 hrs at 37° C., 5% CO2, and then pelleted by centrifugation at 150 g for 10 minutes. After the supernatant was removed, 50 μl/well MTT of 1 mg/ml in RPMI-1640 was added to the cell pellet and the cells were re-suspended by shaking for 2 minutes. The incubation was continued for 4 hours. The supernatant was removed after centrifugation at 150 g for 10 minutes. After blotted dry with filter paper, the cells were mixed with 120 μl 40 mM HCl-2-propanol and shaken for 3 minutes. OD570 nm of each well referenced at 630 nm was obtained with an ELISA reader.

Structure (SMILES): CC(C)[C@H](NC(=O)[C@H](CO)NC(=O)[C@@H](N)Cc1ccc(O)cc1)C(=O)O [YSV, L-Tyrosyl-L-seryl-L-valine] (H-Tyr-Ser-Val-OH)
- inhibition of growth of K562 cells in vitro (conclusion) ([1]; 5 μg/ml to 40 μg/ml, p<0.05): able to inhibit the growth of human leukemia K562 cells in vitro
- % inhibition ([1]; 5 μg/ml): 9.7%
- OD value ([1]; 5 μg/ml): 0.39 ± 0.01
- % inhibition ([1]; 10 μg/ml): 9.3%
- OD value ([1]; 10 μg/ml): 0.39 ± 0.01
- % inhibition ([1]; 20 μg/ml): 11.3%
- OD value ([1]; 20 μg/ml): 0.38 ± 0.00
- % inhibition ([1]; 40 μg/ml): 10.8%
- OD value ([1]; 40 μg/ml): 0.38 ± 0.00
- inhibition of growth of BEL7402 cells in vitro (conclusion) ([2]; 5 μg/ml to 20 μg/ml, p<0.05): able to inhibit the growth of human hepatocellular carcinoma BEL7402 cells in vitro
- % inhibition ([2]; 5 μg/ml): 9.8%
- OD value ([2]; 5 μg/ml): 0.31 ± 0.01
- % inhibition ([2]; 10 μg/ml): 38.0%
- OD value ([2]; 10 μg/ml): 0.22 ± 0.01
- % inhibition ([2]; 20 μg/ml): 23.7%
- OD value ([2]; 20 μg/ml): 0.27 ± 0.01
- stimulation of T lymphocyte transformation activity in vitro (conclusion) ([3]; 0.016 μg/ml to 2 μg/ml, p<0.001): able to stimulate the T lymphocyte transformation activity in vitro with statistical significance
- X ± SD (OD), T lymphocytes transformation ([3]; YSV 0.016 μg/ml with ConA): 0.21 ± 0.01 OD
- X ± SD (OD), T lymphocytes transformation ([3]; YSV 0.08 μg/ml with ConA): 0.23 ± 0.00 OD
- X ± SD (OD), T lymphocytes transformation ([3]; YSV 0.4 μg/ml with ConA): 0.18 ± 0.01 OD
- X ± SD (OD), T lymphocytes transformation ([3]; YSV 2 μg/ml with ConA): 0.18 ± 0.00 OD
